{
  "source": "patent US20180078529A1",
  "about": "“ANGIOTENSIN II RECEPTOR AGONIST FOR TREATING PULMONARY FIBROSIS” (VICORE PHARMA AB, priority 2015, published 2018)",
  "tested_on": "Patients have a diagnosis of Idiopathic Pulmonary Fibrosis, IPF",
  "experiment": "Treatment of patients with Idiopathic Pulmonary Fibrosis with C21 (Examples 1 and 2)",
  "format": "in vivo, human",
  "conditions": "a few weeks after starting treatment",
  "procedure": "Patients have a diagnosis of Idiopathic Pulmonary Fibrosis, IPF, who generally are above the age of 60 years, often with concomitant diseases, like ischemic heart disease, diabetes etc. Patients may either be treated for IPF with currently established drugs, e.g. pirfenidone and/or nintedanib or treatment-naïve. Each patient receives a compound of the invention, C21, in a dose range between 0.3 mg and 100 mg daily that is administered once or several times daily. Control groups are administered placebo, or one or more currently established therapies, e.g. pirfenidone and/or nintedanib. The compound, C21, is in a formulation hat can be administered to the patient orally, via inhalation, intravenously or as a combination of more than one route of administration for the treatment of IPF. The treatment is evaluated through efficacy variables such as objective measurements of improved lung capacity/cardiac function and subjective symptoms and quality of life—both at visits to doctors' office and in the patient's home or work environment. Beneficial effects are recorded and followed after one to several months' treatment with the compound, C21, vs placebo or vs currently established therapy(-ies), e.g. pirfenidone and/or nintedanib.\nPatients have a diagnosis of Idiopathic Pulmonary Fibrosis, IPF, and are treated according to EXAMPLE 1. […] Furthermore, cardiac function tests, e.g. echo or MRI, may indicate improvements in the underlying lung disease resulting in improved cardiac performance. Benefits may also be seen as an improvement in progression-free survival, where the number of deaths is analyzed together with the number of patients presenting with pre-defined marked reduction of FVC and/or exercise capacity. Benefits can be either self-reported or objectively recorded. Improvements in symptoms may include less dyspnea, less cough, less fatigue, increased exercise capacity and improved quality of life. Improvements may be seen in treatment-naïve patients as well as in those already on treatment with established therapies for IPF.",
  "data": [
    {"smiles": "CCCCOC(=O)NS(=O)(=O)c1sc(CC(C)C)cc1-c1ccc(Cn2ccnc2)cc1", "note": "[Compound C21, N-Butyloxycarbonyl-3-(4-imidazol-1-ylmethylphenyl)-5-iso-butylthiophene-2-sulfonamide]", "values": [
      {"measurement": "dyspnea and cough (patient-reported)", "result": "slight improvement"},
      {"measurement": "exercise capacity", "setting": "patient with IPF", "result": "without any deterioration"},
      {"measurement": "biomarkers that are relevant for the progression of the disease (blood tests)", "setting": "patient with IPF, C21 0.3 mg to 100 mg daily", "result": "improvement in biomarkers"}
    ]}
  ]
}
